# Measurements: patent publication US11931368B2, “Glucocorticoid “nintedanib” particles and their use” (CRITITECH, INC., priority 2017, dated 2024)
# Legend:
# [1] = Particle size distribution (volume, laser-light diffraction); type: physicochemical
# Text: The particle size of the particles of all aspects disclosed herein can be determined by a particle size analyzer instrument and the measurement is expressed as the mean diameter based on a volume distribution (volume). A suitable particle size analyzer instrument is one which employs the analytical technique of […]. A suitable laser-light diffraction particle size analyzer instrument is the Mastersizer, such as the Mastersizer 3000, available from Malvern Instruments, United Kingdom.
# [2] = Specific surface area by BET isotherm; type: physicochemical
# Description: As used herein, the “specific surface area” (SSA) is the total surface area of the particle per unit of compound mass as measured by the Brunauer-Emmett-Teller (“BET”) isotherm by the following method: a known mass between 200 and 300 mg of the analyte is added to a 30 mL sample tube. The loaded tube is then mounted to a Porous Materials Inc. SORPTOMETER®, model BET-202A. The automated test is then carried out using the BETWIN® software package and the surface area of each sample is subsequently calculated. Such an increase in SSA results in significant increases in dissolution rates in relevant media as compared to therapeutic particles produced by conventional means. The “therapeutic particles” can include both agglomerated therapeutic particles and non-agglomerated therapeutic particles; since the SSA is determined on a per gram basis it takes into account both agglomerated and non-agglomerated therapeutic particles in the composition. The BET specific surface area test procedure is a compendial method included in both the United States Pharmaceopeia and the European Pharmaceopeia.
Structure (SMILES),Dv10 [1] [μm],Dv50 [1] [μm],Dv90 [1] [μm],SSA (specific surface area) [2] [m^2/g]
"CCC(=O)O[C@]1(C(=O)SCF)[C@H](C)C[C@H]2[C@@H]3C[C@H](F)C4=CC(=O)C=C[C@]4(C)[C@@]3(F)[C@@H](O)C[C@@]21C [Raw fluticasone, fluticasone propionate]",10.9,39.0,74.4,4.11
"COC(=O)c1ccc2c(c1)NC(=O)/C2=C(\Nc1ccc(N(C)C(=O)CN2CCN(C)CC2)cc1)c1ccccc1 [Raw nintedanib, nintedanib]",10.5,36.8,70.2,4.11
